Data published in patent publication US6403082B1, “Bacteriocins, transport and vector system and method of use thereof” (priority 1996, dated 2002).
Marks after values point to notes of the source that are not given here.

Key:
Test in all cases: Spot test of partially purified bacteriocins on strains grown on agar
[1] = system: Clostridia vegetative cells; assay type: cell-based, Clostridium
Leuconostoc = system: Leuconostoc
Carnobacteria = system: Carnobacteria
[2] = system: Bacillus vegetative cells; assay type: cell-based
Lactobacillus = system: Lactobacillus
G negative strains = assay type: cell-based
Clostridia spores = assay type: cell-based, Clostridium
Listeria = system: Listeria
Streptococcus = system: Streptococcus
Staphylococcus = system: Staphylococcus
Lactococcus = system: Lactococcus
Pediococcus = system: Pediococcus
Enterococcus = system: Enterococcus
Bacillus spores = assay type: cell-based
Brochothrix = system: Brochothrix
[3] = 8AU (10 μl/spot of 800 AU/ml), listed as Mesent Y105
[4] = 1AU (10 μl/spot of 100 AU/ml), listed as Mesent Y105

cbn A was tested, and the “Number of strains inhibited/Number of strains tested” value ([1]; 1AU (10 μl/spot of 100 AU/ml)) was 0/8, the “Number of strains inhibited/Number of strains tested” value ([1]; 8AU (10 μl/spot of 800 AU/ml)) was 0/8 and the “Number of strains inhibited/Number of strains tested” value (Leuconostoc; 1AU (10 μl/spot of 100 AU/ml)) was 1/9. For the same substance, the “Number of strains inhibited/Number of strains tested” value (Leuconostoc; 8AU (10 μl/spot of 800 AU/ml)) was 1/9, the “Number of strains inhibited/Number of strains tested” value (Carnobacteria; 1AU (10 μl/spot of 100 AU/ml)) was 0/14 and the “Number of strains inhibited/Number of strains tested” value (Carnobacteria; 8AU (10 μl/spot of 800 AU/ml)) was 0/14. For the same substance, the “Number of strains inhibited/Number of strains tested” value ([2]; 1AU (10 μl/spot of 100 AU/ml)) was 2/5, the “Number of strains inhibited/Number of strains tested” value ([2]; 8AU (10 μl/spot of 800 AU/ml)) was 2/5 and the “Number of strains inhibited/Number of strains tested” value (Lactobacillus; 1AU (10 μl/spot of 100 AU/ml)) was 0/17. The “Number of strains inhibited/Number of strains tested” value (Lactobacillus; 8AU (10 μl/spot of 800 AU/ml)) was 1/17, the “Number of strains inhibited/Number of strains tested” value (G negative strains; 1AU (10 μl/spot of 100 AU/ml)) was 0/29 and the “Number of strains inhibited/Number of strains tested” value (G negative strains; 8AU (10 μl/spot of 800 AU/ml)) was 0/29. For the same substance, the “Number of strains inhibited/Number of strains tested” value (Clostridia spores; 1AU (10 μl/spot of 100 AU/ml)) was 0/7, the “Number of strains inhibited/Number of strains tested” value (Clostridia spores; 8AU (10 μl/spot of 800 AU/ml)) was 0/7 and the “Number of strains inhibited/Number of strains tested” value (Listeria; 1AU (10 μl/spot of 100 AU/ml)) was 4/42. The “Number of strains inhibited/Number of strains tested” value (Listeria; 8AU (10 μl/spot of 800 AU/ml)) was 21/42, the “Number of strains inhibited/Number of strains tested” value (Streptococcus; 1AU (10 μl/spot of 100 AU/ml)) was 0/3 and the “Number of strains inhibited/Number of strains tested” value (Streptococcus; 8AU (10 μl/spot of 800 AU/ml)) was 0/3. The “Number of strains inhibited/Number of strains tested” value (Staphylococcus; 1AU (10 μl/spot of 100 AU/ml)) was 0/7, the “Number of strains inhibited/Number of strains tested” value (Staphylococcus; 8AU (10 μl/spot of 800 AU/ml)) was 1/7 and the “Number of strains inhibited/Number of strains tested” value (Lactococcus; 1AU (10 μl/spot of 100 AU/ml)) was 0/8. The “Number of strains inhibited/Number of strains tested” value (Lactococcus; 8AU (10 μl/spot of 800 AU/ml)) was 0/8, the “Number of strains inhibited/Number of strains tested” value (Pediococcus; 1AU (10 μl/spot of 100 AU/ml)) was 0/3 and the “Number of strains inhibited/Number of strains tested” value (Pediococcus; 8AU (10 μl/spot of 800 AU/ml)) was 0/3. The “Number of strains inhibited/Number of strains tested” value (Enterococcus; 1AU (10 μl/spot of 100 AU/ml)) was 2/14, the “Number of strains inhibited/Number of strains tested” value (Enterococcus; 8AU (10 μl/spot of 800 AU/ml)) was 2/14 and the “Number of strains inhibited/Number of strains tested” value (Bacillus spores; 1AU (10 μl/spot of 100 AU/ml)) was 0/5. For the same substance, the “Number of strains inhibited/Number of strains tested” value (Bacillus spores; 8AU (10 μl/spot of 800 AU/ml)) was 0/5, the “Number of strains inhibited/Number of strains tested” value (Brochothrix; 1AU (10 μl/spot of 100 AU/ml)) was 0/14 and the “Number of strains inhibited/Number of strains tested” value (Brochothrix; 8AU (10 μl/spot of 800 AU/ml)) was 0/14.
With “Enterocin 900: broad spectrum bacteriocin of 71 amino acids (SEQ ID NO:30) produced by Enterococcus faecium 900 (MKKELLNKNEMSRIIGGKINWGNVGGSCVGGAVIGGALGGLGGAGGGCITGAIGSIWDQ; Brochocin-C peptide B;)” the “Number of strains inhibited/Number of strains tested” value ([1]; 1AU (10 μl/spot of 100 AU/ml)) was 2/8, the “Number of strains inhibited/Number of strains tested” value ([1]; 8AU (10 μl/spot of 800 AU/ml)) was 3/8 and the “Number of strains inhibited/Number of strains tested” value (Leuconostoc; 1AU (10 μl/spot of 100 AU/ml)) was 1/9. For the same substance, the “Number of strains inhibited/Number of strains tested” value (Leuconostoc; 8AU (10 μl/spot of 800 AU/ml)) was 1/9, the “Number of strains inhibited/Number of strains tested” value (Carnobacteria; 1AU (10 μl/spot of 100 AU/ml)) was 1/19 and the “Number of strains inhibited/Number of strains tested” value (Carnobacteria; 8AU (10 μl/spot of 800 AU/ml)) was 7/19. For the same substance, the “Number of strains inhibited/Number of strains tested” value ([2]; 1AU (10 μl/spot of 100 AU/ml)) was 0/5, the “Number of strains inhibited/Number of strains tested” value ([2]; 8AU (10 μl/spot of 800 AU/ml)) was 2/5 and the “Number of strains inhibited/Number of strains tested” value (Lactobacillus; 1AU (10 μl/spot of 100 AU/ml)) was 2/17. The “Number of strains inhibited/Number of strains tested” value (Lactobacillus; 8AU (10 μl/spot of 800 AU/ml)) was 5/17, the “Number of strains inhibited/Number of strains tested” value (G negative strains; 1AU (10 μl/spot of 100 AU/ml)) was 0/29 and the “Number of strains inhibited/Number of strains tested” value (G negative strains; 8AU (10 μl/spot of 800 AU/ml)) was 0/29. The “Number of strains inhibited/Number of strains tested” value (Clostridia spores; 1AU (10 μl/spot of 100 AU/ml)) was 0/7, the “Number of strains inhibited/Number of strains tested” value (Clostridia spores; 8AU (10 μl/spot of 800 AU/ml)) was 0/7 and the “Number of strains inhibited/Number of strains tested” value (Listeria; 1AU (10 μl/spot of 100 AU/ml)) was 39/42. For the same substance, the “Number of strains inhibited/Number of strains tested” value (Listeria; 8AU (10 μl/spot of 800 AU/ml)) was 39/42, the “Number of strains inhibited/Number of strains tested” value (Streptococcus; 1AU (10 μl/spot of 100 AU/ml)) was 0/3 and the “Number of strains inhibited/Number of strains tested” value (Streptococcus; 8AU (10 μl/spot of 800 AU/ml)) was 0/3. The “Number of strains inhibited/Number of strains tested” value (Staphylococcus; 1AU (10 μl/spot of 100 AU/ml)) was 1/7, the “Number of strains inhibited/Number of strains tested” value (Staphylococcus; 8AU (10 μl/spot of 800 AU/ml)) was 1/7 and the “Number of strains inhibited/Number of strains tested” value (Lactococcus; 1AU (10 μl/spot of 100 AU/ml)) was 4/8. For the same substance, the “Number of strains inhibited/Number of strains tested” value (Lactococcus; 8AU (10 μl/spot of 800 AU/ml)) was 4/8, the “Number of strains inhibited/Number of strains tested” value (Pediococcus; 1AU (10 μl/spot of 100 AU/ml)) was 0/3 and the “Number of strains inhibited/Number of strains tested” value (Pediococcus; 8AU (10 μl/spot of 800 AU/ml)) was 0/3. The “Number of strains inhibited/Number of strains tested” value (Enterococcus; 1AU (10 μl/spot of 100 AU/ml)) was 5/14, the “Number of strains inhibited/Number of strains tested” value (Enterococcus; 8AU (10 μl/spot of 800 AU/ml)) was 8/14 and the “Number of strains inhibited/Number of strains tested” value (Bacillus spores; 1AU (10 μl/spot of 100 AU/ml)) was 0/5. For the same substance, the “Number of strains inhibited/Number of strains tested” value (Bacillus spores; 8AU (10 μl/spot of 800 AU/ml)) was 0/5, the “Number of strains inhibited/Number of strains tested” value (Brochothrix; 1AU (10 μl/spot of 100 AU/ml)) was 0/14 and the “Number of strains inhibited/Number of strains tested” value (Brochothrix; 8AU (10 μl/spot of 800 AU/ml)) was 0/14.
With “Mesen Y105: mesentericin Y105, an anti-Listeria bacteriocin from Leuconostoc mesenteroides (KYYGNGVHCTKSGCSVNWGEAASAGIHRLANGGNGFW; UniProt P38577 25-61, looked up)” the “Number of strains inhibited/Number of strains tested” value ([1]; 1AU (10 μl/spot of 100 AU/ml)) was 0/8, the “Number of strains inhibited/Number of strains tested” value ([1]; 8AU (10 μl/spot of 800 AU/ml)) was 1/8^d and the “Number of strains inhibited/Number of strains tested” value [1, 3] was 1/8. The “Number of strains inhibited/Number of strains tested” value (Leuconostoc; 1AU (10 μl/spot of 100 AU/ml)) was 5/9, the “Number of strains inhibited/Number of strains tested” value (Leuconostoc; 8AU (10 μl/spot of 800 AU/ml)) was 6/9^o and the “Number of strains inhibited/Number of strains tested” value (Leuconostoc; [3]) was 6/9. For the same substance, the “Number of strains inhibited/Number of strains tested” value (Carnobacteria; 1AU (10 μl/spot of 100 AU/ml)) was 17/19^j, the “Number of strains inhibited/Number of strains tested” value (Carnobacteria; [4]) was 17/19 and the “Number of strains inhibited/Number of strains tested” value (Carnobacteria; 8AU (10 μl/spot of 800 AU/ml)) was 19/19. The “Number of strains inhibited/Number of strains tested” value ([2]; 1AU (10 μl/spot of 100 AU/ml)) was 3/5, the “Number of strains inhibited/Number of strains tested” value ([2]; 8AU (10 μl/spot of 800 AU/ml)) was 5/5 and the “Number of strains inhibited/Number of strains tested” value (Lactobacillus; 1AU (10 μl/spot of 100 AU/ml)) was 1/17^m. The “Number of strains inhibited/Number of strains tested” value (Lactobacillus; [4]) was 1/17, the “Number of strains inhibited/Number of strains tested” value (Lactobacillus; 8AU (10 μl/spot of 800 AU/ml)) was 1/17^m and the “Number of strains inhibited/Number of strains tested” value (Lactobacillus; [3]) was 2/17. For the same substance, the “Number of strains inhibited/Number of strains tested” value (G negative strains; 1AU (10 μl/spot of 100 AU/ml)) was 0/29, the “Number of strains inhibited/Number of strains tested” value (G negative strains; 8AU (10 μl/spot of 800 AU/ml)) was 0/29 and the “Number of strains inhibited/Number of strains tested” value (Clostridia spores; 1AU (10 μl/spot of 100 AU/ml)) was 0/7. For the same substance, the “Number of strains inhibited/Number of strains tested” value (Clostridia spores; 8AU (10 μl/spot of 800 AU/ml)) was 0/7, the “Number of strains inhibited/Number of strains tested” value (Listeria; 1AU (10 μl/spot of 100 AU/ml)) was 36/42^h and the “Number of strains inhibited/Number of strains tested” value (Listeria; [4]) was 36/42. The “Number of strains inhibited/Number of strains tested” value (Listeria; 8AU (10 μl/spot of 800 AU/ml)) was 42/42, the “Number of strains inhibited/Number of strains tested” value (Streptococcus; 1AU (10 μl/spot of 100 AU/ml)) was 0/3 and the “Number of strains inhibited/Number of strains tested” value (Streptococcus; 8AU (10 μl/spot of 800 AU/ml)) was 3/3^g. For the same substance, the “Number of strains inhibited/Number of strains tested” value (Streptococcus; [3]) was 3/3, the “Number of strains inhibited/Number of strains tested” value (Staphylococcus; 1AU (10 μl/spot of 100 AU/ml)) was 1/7^cf and the “Number of strains inhibited/Number of strains tested” value (Staphylococcus; [4]) was 1/7. For the same substance, the “Number of strains inhibited/Number of strains tested” value (Staphylococcus; 8AU (10 μl/spot of 800 AU/ml)) was 7/7^cf, the “Number of strains inhibited/Number of strains tested” value (Staphylococcus; [3]) was 7/7 and the “Number of strains inhibited/Number of strains tested” value (Lactococcus; 1AU (10 μl/spot of 100 AU/ml)) was 0/8. For the same substance, the “Number of strains inhibited/Number of strains tested” value (Lactococcus; 8AU (10 μl/spot of 800 AU/ml)) was 1/8^n, the “Number of strains inhibited/Number of strains tested” value (Lactococcus; [3]) was 1/8 and the “Number of strains inhibited/Number of strains tested” value (Pediococcus; 1AU (10 μl/spot of 100 AU/ml)) was 0/3. For the same substance, the “Number of strains inhibited/Number of strains tested” value (Pediococcus; 8AU (10 μl/spot of 800 AU/ml)) was 0/3, the “Number of strains inhibited/Number of strains tested” value (Enterococcus; 1AU (10 μl/spot of 100 AU/ml)) was 3/14^l and the “Number of strains inhibited/Number of strains tested” value (Enterococcus; [4]) was 3/14. For the same substance, the “Number of strains inhibited/Number of strains tested” value (Enterococcus; 8AU (10 μl/spot of 800 AU/ml)) was 9/14^l, the “Number of strains inhibited/Number of strains tested” value (Enterococcus; [3]) was 9/14 and the “Number of strains inhibited/Number of strains tested” value (Bacillus spores; 1AU (10 μl/spot of 100 AU/ml)) was 5/5^b. The “Number of strains inhibited/Number of strains tested” value (Bacillus spores; [4]) was 5/5, the “Number of strains inhibited/Number of strains tested” value (Bacillus spores; 8AU (10 μl/spot of 800 AU/ml)) was 5/5^b and the “Number of strains inhibited/Number of strains tested” value (Bacillus spores; [3]) was 5/5. For the same substance, the “Number of strains inhibited/Number of strains tested” value (Brochothrix; 1AU (10 μl/spot of 100 AU/ml)) was 0/14 and the “Number of strains inhibited/Number of strains tested” value (Brochothrix; 8AU (10 μl/spot of 800 AU/ml)) was 0/14.
